The results in this text go back to the supplement of paper PMC10307832.

What all share (experiment): relative viability (nuclei count vs DMSO), 5 days (fraction); higher = more cells survive
Compound in assay [1]: C1COCCN1C2=NC(=NC3=C2OC4=C3C=CC=N4)C5=CC(=CC=C5)NC(=O)C6=CN=C(C=C6)N + Cc1nc(NC(=O)N2CCC[C@H]2C(N)=O)sc1-c1ccnc(C(C)(C)C(F)(F)F)c1 [Alpelisib] (partner 2 µM)
The essentials: (§1)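 After 5 days of treatment, lung cancer cells in 1536-well plates were fixed and stained in a single step (final 0.05% Triton X-100, 1% formaldehyde, 1 ug/ml Hoechst) and their nuclei counted on 4× images. Treatment had been applied by pin tool the day after seeding as one drug alone or as a fixed anchor-drug dose with five library-drug doses (not always all listed) in √10 steps. Relative viability is the nuclei count of treated wells divided by that of vehicle wells, and values are medians of duplicate plates.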

Compound in assay [2]: CN1CCC(CNc2ccc3ncc(-c4cccc(OC(F)(F)F)c4)n3n2)CC1 [SGI-1776] + Nc1nc2[nH]cc(CCc3ccc(C(=O)N[C@@H](CCC(=O)O)C(=O)O)cc3)c2c(=O)[nH]1 [Pemetrexed] (partner 0.2 µM)
The essentials: as §1

Compound in assay [3]: CN1CCC(CNc2ccc3ncc(-c4cccc(OC(F)(F)F)c4)n3n2)CC1 [SGI-1776] + C[C@@H](Oc1cc(-c2cnn(C3CCNCC3)c2)cnc1N)c1c(Cl)ccc(F)c1Cl [Crizotinib] (partner 1 µM)
The essentials: as §1

Compound in assay [4]: Nc1ccccc1NC(=O)c1ccc(CNC(=O)OCc2cccnc2)cc1 [Entinostat] + CC1(C)CCC(c2ccc(Cl)cc2)=C(CN2CCN(c3ccc(C(=O)NS(=O)(=O)c4ccc(N[C@H](CCN5CCOCC5)CSc5ccccc5)c(S(=O)(=O)C(F)(F)F)c4)cc3)CC2)C1 [Navitoclax] (partner 0.5 µM)
The essentials: as §1

Turning to UMC-11, the relative viability in assay [1] (first compound 0.02 µM) came out at 1.06; in assay [1] (first compound 0.06325 µM), 1.04; in assay [1] (first compound 0.2 µM), 1.03; in assay [1] (first compound 0.6325 µM) it was 1.08; in assay [1] (first compound 2 µM), 0.593; in assay [2] (first compound 0.08 µM) it was 0.828. Moreover, the relative viability was 0.864 in assay [2] (first compound 0.8 µM); 0.699 in assay [2] (first compound 2.53 µM); 0.558 in assay [2] (first compound 8 µM); 0.614 in assay [3] (first compound 0.08 µM); 0.498 in assay [3] (first compound 0.8 µM); 0.665 in assay [3] (first compound 2.53 µM). The relative viability is 0.169 in assay [3] (first compound 8 µM); 0.29 in assay [4] (first compound 0.02 µM); 0.302 in assay [4] (first compound 0.06325 µM); 0.25 in assay [4] (first compound 0.2 µM); 0.117 in assay [4] (first compound 0.6325 µM); 0.115 in assay [4] (first compound 2 µM).
